According to ChEMBL document CHEMBL4387706, “Discovery of Novel Spiroindoline Derivatives as Selective Tankyrase Inhibitors” (J Med Chem, 2019):
One block for each compound: values may come before it. The source made the active and inactive calls. No cut-off for these calls is given here.

Key:
[1] = target: Tankyrase 1/2 (Homo sapiens) (UniProt Q9H2K2+O95271); assay: Inhibition of TNKS/TNKS2 in human COLO320DM cells assessed as upregulation of AXIN2 expression at 0.1 uM measured after 16 hrs by Western blot analysis relative to G007-LK; type: cell-based
hERG (KCNH2) = hERG (KCNH2) (Homo sapiens, UniProt Q12809); assay: Displacement of [3H]dofetilide from full-length recombinant human ERG receptor expressed in HEK293 cells at 10 uM measured after 60 mins by scintillation counting method relative to control; type: cell-based; conditions: HEK293 cells expressing recombinant human ERG, probe [3H]dofetilide
[2] = target: 5-hydroxytryptamine receptor 2A (Homo sapiens) (UniProt P28223); assay: Displacement of [3H]ketanserin from full-length recombinant human 5HT2A receptor expressed in CHOK1 cells at 10 uM measured after 60 mins by scintillation counting method relative to control; type: cell-based
[3] = target: Adenosine receptor A2a (Homo sapiens) (UniProt P29274); assay: Displacement of [3H]CGS-21680 from full-length recombinant human A2A receptor expressed in HEK293 cells at 10 uM measured after 90 mins by scintillation counting method relative to control; type: cell-based
[4] = target: Glucocorticoid receptor (Homo sapiens) (UniProt P04150); assay: Displacement of [3H]dexamethasone from full-length recombinant human glucocorticoid receptor expressed in insect cells at 10 uM measured after 24 hrs by scintillation counting method relative to control
[5] = target: Histamine H1 receptor (Homo sapiens) (UniProt P35367); assay: Displacement of [3H]pyrilamine from full-length recombinant human H1 receptor expressed in CHOK1 cells at 10 uM measured after 180 mins by scintillation counting method relative to control; type: cell-based
[6] = target: Vasopressin V1a receptor (Homo sapiens) (UniProt P37288); assay: Displacement of [125I]Phenylacetyl-D-Tyr(Me)-Phe-Gln-Asn-Arg-Pro-Arg-Tyr-NH2 from full-length recombinant human V1A receptor expressed in HEK293 cells at 10 uM measured after 120 mins by scintillation counting method relative to control; type: cell-based
[7] = target: Cav1.2 (voltage-dependent L-type calcium channel subunit alpha-1C) (Rattus norvegicus, UniProt P22002); assay: Displacement of [3H]nitrendipine from Cav1.2 in Wistar rat cerebral cortex at 10 uM measured after 90 mins by scintillation counting method relative to control; conditions: probe [3H]nitrendipine
[8] = target: 5-hydroxytryptamine receptor 1A (Homo sapiens) (UniProt P08908); assay: Displacement of [3H]8-OH-DPAT from full-length recombinant human 5HT1A receptor expressed in CHOK1 cells at 10 uM measured after 60 mins by scintillation counting method relative to control; type: cell-based
[9] = target: Muscarinic acetylcholine receptor M2 (Homo sapiens) (UniProt P08172); assay: Displacement of [3H]N-Methylscopolamine from full-length recombinant human M2 receptor expressed in CHOK1 cells at 10 uM measured after 120 mins by scintillation counting method relative to control; type: cell-based
RKO = assay: Antiproliferative activity against human RKO cells assessed reduction in cell viability at 0.3 uM measured after 5 days by MTT assay; type: functional, cell-based
[10] = target: Sodium-dependent serotonin transporter (Homo sapiens) (UniProt P31645); assay: Displacement of [3H]paroxetine from full-length recombinant human SET receptor expressed in HEK293 cells at 10 uM measured after 60 mins by scintillation counting method relative to control; type: cell-based
[11] = target: D(2) dopamine receptor (Homo sapiens) (UniProt P14416); assay: Displacement of [3H]spiperone from full-length recombinant human D2S receptor expressed in CHO cells at 10 uM measured after 120 mins by scintillation counting method relative to control; type: cell-based
[12] = target: 3',5'-cyclic-AMP phosphodiesterase 4D (Homo sapiens) (UniProt Q08499); assay: Inhibition of full-length recombinant human PDE4D2 expressed in Sf9 insect cells at 10 uM using FAM-cAMP as substrate preincubated for 15 mins followed by substrate addition and measured after 15 mins by spectrofluorimetric method relative to control
[13] = AUC (infinity) in ICR mouse at 50 mg/kg, ip; type: ADME, organism-based; design: dose 50 mg/kg, route intraperitoneal, time infinity; conditions: in vivo
COLO 320DM = assay: Antiproliferative activity against human COLO320DM cells assessed inhibition of cell growth measured after 5 days by MTT assay; type: functional; conditions: 120 h
[14] = target: T1, Poly [ADP-ribose] polymerase tankyrase-1 (Homo sapiens, UniProt O95271)
T1 sequence (O95271 whole entry): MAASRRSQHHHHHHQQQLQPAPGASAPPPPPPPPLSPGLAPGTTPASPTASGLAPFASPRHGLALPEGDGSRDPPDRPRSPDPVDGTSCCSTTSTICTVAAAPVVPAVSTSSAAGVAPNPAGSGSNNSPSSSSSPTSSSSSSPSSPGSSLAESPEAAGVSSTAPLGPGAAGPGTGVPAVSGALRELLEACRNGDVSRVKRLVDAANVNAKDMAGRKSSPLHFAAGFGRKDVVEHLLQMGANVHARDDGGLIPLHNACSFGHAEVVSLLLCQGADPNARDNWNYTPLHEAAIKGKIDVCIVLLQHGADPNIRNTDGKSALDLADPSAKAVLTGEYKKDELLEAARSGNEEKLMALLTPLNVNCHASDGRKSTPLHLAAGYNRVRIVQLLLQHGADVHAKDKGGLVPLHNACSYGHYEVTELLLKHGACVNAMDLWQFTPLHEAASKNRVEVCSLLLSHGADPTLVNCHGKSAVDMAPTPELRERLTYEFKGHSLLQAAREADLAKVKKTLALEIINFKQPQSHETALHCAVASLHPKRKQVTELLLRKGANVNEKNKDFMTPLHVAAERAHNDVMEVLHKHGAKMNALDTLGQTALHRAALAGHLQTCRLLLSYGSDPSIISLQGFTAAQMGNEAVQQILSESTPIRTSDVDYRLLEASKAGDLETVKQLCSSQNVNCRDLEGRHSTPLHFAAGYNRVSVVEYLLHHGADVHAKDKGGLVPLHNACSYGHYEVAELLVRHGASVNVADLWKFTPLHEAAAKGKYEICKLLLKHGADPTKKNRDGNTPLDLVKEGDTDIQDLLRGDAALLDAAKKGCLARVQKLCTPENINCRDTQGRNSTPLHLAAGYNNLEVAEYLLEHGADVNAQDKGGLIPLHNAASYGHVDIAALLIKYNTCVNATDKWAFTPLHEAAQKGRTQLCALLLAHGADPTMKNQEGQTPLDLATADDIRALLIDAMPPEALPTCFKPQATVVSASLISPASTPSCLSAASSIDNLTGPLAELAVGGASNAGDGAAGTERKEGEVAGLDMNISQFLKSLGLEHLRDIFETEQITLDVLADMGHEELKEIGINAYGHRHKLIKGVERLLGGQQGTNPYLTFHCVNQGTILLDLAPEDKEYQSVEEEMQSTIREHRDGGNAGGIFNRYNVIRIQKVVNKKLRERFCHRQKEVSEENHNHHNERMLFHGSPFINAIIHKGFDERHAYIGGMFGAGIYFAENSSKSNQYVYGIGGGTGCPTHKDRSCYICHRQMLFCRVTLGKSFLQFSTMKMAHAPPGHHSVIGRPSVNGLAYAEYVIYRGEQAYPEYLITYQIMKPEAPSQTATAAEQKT
Description: Inhibition of recombinant human N-terminal TEV cleavage site-fused/FLAG-poly his-tagged TNKS SAM-PARP domain (1024 to 1327 residues) expressed in Escherichia coli assessed as reduction in auto-PARylation preincubated for 10 mins followed by biotinylated-NAD+ addition and measured after 45 mins by ELISA

Chain of Sodium-dependent serotonin transporter (Homo sapiens) (P31645 whole entry, looked up): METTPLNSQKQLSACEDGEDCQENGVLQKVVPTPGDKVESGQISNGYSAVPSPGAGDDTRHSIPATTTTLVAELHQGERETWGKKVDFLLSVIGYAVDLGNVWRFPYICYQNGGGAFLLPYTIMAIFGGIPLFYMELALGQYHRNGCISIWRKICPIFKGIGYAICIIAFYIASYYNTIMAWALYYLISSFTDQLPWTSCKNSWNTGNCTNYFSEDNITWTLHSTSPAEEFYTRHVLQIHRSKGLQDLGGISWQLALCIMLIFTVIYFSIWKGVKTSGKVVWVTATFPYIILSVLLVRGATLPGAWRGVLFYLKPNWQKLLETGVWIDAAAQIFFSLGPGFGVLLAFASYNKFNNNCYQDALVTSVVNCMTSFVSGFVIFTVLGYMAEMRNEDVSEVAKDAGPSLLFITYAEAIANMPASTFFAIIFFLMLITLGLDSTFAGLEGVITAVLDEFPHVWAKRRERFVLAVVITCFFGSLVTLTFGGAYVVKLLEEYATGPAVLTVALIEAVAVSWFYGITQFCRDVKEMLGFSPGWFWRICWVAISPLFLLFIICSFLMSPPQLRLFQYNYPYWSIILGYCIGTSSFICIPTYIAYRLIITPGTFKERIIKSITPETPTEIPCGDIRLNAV
Chain of Tankyrase 1/2 (Homo sapiens) (Q9H2K2 whole entry, looked up, one chain of several): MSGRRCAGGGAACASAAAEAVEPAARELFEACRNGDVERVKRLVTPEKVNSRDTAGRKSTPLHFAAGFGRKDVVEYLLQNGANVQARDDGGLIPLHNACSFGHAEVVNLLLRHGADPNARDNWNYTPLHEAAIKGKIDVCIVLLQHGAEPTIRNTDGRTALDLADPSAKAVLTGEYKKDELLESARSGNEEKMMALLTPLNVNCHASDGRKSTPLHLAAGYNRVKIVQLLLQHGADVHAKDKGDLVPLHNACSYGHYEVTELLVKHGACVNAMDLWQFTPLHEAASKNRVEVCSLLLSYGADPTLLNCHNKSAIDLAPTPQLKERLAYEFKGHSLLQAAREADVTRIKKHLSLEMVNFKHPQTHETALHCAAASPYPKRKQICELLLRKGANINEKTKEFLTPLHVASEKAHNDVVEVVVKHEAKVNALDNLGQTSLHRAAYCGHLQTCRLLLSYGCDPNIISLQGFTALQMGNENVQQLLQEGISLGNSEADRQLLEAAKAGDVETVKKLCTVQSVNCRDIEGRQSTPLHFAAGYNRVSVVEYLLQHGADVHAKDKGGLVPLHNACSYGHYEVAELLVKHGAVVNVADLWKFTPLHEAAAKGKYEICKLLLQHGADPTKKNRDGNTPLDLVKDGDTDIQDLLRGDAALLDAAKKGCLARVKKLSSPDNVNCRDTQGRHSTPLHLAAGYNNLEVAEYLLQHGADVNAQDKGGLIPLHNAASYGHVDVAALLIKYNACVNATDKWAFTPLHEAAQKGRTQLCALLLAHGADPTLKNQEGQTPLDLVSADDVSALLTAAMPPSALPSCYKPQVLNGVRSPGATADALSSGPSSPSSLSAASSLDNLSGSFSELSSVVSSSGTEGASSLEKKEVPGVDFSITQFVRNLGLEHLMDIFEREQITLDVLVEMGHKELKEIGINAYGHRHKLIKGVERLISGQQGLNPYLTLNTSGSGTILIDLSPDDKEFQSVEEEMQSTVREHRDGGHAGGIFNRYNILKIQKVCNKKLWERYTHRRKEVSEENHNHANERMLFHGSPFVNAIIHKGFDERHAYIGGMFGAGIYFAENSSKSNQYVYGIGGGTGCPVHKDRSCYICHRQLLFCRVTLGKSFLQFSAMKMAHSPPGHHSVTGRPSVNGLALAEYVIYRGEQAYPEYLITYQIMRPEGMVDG
Chain of D(2) dopamine receptor (Homo sapiens) (P14416 whole entry): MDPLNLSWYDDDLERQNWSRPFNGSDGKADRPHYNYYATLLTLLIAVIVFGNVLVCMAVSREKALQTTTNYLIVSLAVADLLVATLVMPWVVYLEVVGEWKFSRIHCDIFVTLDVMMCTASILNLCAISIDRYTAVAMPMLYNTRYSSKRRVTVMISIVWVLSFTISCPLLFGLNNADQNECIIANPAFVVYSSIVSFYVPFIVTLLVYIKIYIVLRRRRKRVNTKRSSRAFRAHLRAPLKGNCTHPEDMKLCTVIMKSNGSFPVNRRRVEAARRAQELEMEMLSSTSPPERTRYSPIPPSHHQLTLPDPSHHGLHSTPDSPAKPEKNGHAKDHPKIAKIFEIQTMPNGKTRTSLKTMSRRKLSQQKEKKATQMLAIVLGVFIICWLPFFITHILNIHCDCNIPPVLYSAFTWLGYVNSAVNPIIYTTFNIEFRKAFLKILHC
Chain of 5-hydroxytryptamine receptor 2A (Homo sapiens) (P28223 whole entry): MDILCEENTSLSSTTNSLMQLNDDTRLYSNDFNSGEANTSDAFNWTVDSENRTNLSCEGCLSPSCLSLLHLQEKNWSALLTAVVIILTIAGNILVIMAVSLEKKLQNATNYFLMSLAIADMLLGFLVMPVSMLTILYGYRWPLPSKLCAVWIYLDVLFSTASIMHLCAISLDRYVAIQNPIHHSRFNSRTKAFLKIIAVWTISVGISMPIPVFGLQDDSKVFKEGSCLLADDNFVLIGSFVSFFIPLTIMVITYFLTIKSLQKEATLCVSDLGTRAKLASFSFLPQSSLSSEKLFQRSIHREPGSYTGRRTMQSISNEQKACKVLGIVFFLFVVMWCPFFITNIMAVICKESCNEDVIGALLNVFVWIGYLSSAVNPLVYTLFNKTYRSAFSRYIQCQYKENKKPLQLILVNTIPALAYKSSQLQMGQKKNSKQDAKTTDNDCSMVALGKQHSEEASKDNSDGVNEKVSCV
Chain of hERG (KCNH2) (Q12809 whole entry): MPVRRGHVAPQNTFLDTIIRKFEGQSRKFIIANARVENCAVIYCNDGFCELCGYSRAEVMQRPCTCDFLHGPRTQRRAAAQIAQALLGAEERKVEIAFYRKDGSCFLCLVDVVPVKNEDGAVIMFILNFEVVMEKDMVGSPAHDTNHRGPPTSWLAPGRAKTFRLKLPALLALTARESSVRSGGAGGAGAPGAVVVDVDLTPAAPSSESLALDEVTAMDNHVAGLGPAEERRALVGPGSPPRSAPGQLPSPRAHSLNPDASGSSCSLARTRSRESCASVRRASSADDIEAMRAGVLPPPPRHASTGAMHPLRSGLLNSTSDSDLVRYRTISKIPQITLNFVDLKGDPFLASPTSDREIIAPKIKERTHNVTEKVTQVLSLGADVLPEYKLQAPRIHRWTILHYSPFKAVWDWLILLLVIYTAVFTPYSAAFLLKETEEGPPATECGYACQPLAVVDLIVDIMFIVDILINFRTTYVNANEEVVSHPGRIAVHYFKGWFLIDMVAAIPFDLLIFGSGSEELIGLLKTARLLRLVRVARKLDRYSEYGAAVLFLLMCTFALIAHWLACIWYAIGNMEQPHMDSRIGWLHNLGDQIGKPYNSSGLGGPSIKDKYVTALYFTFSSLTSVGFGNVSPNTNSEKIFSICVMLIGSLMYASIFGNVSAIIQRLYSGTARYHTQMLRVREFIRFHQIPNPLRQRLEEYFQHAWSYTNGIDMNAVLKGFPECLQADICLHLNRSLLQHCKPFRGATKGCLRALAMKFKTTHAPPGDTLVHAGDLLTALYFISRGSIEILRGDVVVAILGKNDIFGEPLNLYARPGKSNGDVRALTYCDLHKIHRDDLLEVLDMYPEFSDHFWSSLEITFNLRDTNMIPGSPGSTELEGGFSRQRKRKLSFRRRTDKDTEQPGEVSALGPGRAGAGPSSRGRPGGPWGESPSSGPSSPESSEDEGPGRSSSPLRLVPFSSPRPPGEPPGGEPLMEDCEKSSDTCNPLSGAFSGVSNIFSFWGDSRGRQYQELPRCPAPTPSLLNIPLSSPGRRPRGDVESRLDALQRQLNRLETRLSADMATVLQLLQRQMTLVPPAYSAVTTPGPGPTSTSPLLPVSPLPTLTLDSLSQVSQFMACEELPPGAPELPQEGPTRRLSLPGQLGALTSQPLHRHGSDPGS
Chain of Adenosine receptor A2a (Homo sapiens) (P29274 whole entry): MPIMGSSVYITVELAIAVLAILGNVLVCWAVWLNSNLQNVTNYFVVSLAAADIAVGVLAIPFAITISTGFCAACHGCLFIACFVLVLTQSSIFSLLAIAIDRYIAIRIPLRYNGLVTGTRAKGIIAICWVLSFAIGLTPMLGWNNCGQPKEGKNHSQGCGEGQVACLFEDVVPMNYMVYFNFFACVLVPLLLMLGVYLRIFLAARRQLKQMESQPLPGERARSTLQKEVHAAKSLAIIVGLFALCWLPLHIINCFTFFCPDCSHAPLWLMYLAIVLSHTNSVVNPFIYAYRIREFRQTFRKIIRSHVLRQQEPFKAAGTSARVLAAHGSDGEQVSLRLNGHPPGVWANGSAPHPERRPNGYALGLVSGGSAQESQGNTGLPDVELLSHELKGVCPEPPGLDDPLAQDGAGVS
Chain of Glucocorticoid receptor (Homo sapiens) (P04150 whole entry): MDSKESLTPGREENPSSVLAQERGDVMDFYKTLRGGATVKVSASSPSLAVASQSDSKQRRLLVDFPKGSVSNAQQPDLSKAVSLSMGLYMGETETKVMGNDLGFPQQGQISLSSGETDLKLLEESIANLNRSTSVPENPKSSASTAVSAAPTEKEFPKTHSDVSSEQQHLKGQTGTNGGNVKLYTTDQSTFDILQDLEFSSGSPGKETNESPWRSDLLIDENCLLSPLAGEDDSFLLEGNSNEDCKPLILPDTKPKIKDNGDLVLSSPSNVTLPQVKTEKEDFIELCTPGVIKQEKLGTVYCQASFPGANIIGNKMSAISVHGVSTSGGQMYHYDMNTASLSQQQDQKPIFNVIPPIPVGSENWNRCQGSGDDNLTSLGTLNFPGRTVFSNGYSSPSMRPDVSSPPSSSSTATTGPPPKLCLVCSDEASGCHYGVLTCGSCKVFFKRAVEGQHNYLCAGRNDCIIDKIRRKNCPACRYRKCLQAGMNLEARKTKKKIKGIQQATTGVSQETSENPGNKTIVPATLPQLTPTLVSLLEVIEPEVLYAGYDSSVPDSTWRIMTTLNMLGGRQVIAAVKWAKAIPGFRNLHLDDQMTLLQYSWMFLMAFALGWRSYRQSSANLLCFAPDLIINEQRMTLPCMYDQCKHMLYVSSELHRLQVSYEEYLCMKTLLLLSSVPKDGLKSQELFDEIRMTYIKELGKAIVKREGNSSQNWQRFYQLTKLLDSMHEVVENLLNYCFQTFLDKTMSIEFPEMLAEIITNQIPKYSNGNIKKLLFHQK

SMILES: O=c1[nH]c(N2CCC3(CC2)CN(CCO)c2cc(F)cc(F)c23)nc2c1CCCC2
- fold change (FC) [1]: 4.42
- inhibition at 1 h, 10 µM (hERG (KCNH2)): > 20%
- inhibition [2]: > 20%
- inhibition [3]: > 20%
- inhibition [4]: > 20%
- inhibition [5]: > 20%
- inhibition [6]: > 20%
- inhibition at 1.5 h, 10 µM [7]: > 20%
- inhibition [8]: > 20%
- inhibition [9]: > 20%
- Activity (RKO): Active
- inhibition [10]: > 20%
- inhibition [11]: > 20%
- inhibition [12]: > 20%
- AUC(0-inf) [13]: 555 µM·h

- GI50 (COLO 320DM): 1.82 µM
- IC50 [14]: 0.0205 µM
SMILES: COc1ccccc1N1CCN(c2nc3c(c(=O)[nH]2)CCCC3)CC1
